Entries after “also recorded” stand apart in the source; their conditions may differ.
Tests used:
SHH and IHH = SHH and IHH protein expression in A2780 and A2780-CP70 cells (Western blot); format: cell-based, human; settings: cyclopamine
OPN = OPN expression in osteoblastic cells treated with cyclopamine (qRT-PCR, immunoblot); format: cell-based, human
Protocol: (§1) Quantitative RT-PCR (qRT-PCR)—cDNA was generated using High Capacity Reverse Transcriptase Kit (Applied Biosystems, Foster City, Calif.). Real time PCR was performed using a BioRad iQ5 Real-Time Detection system (Bio-Rad, Hercules, Calif.). All reactions were done in triplicate. OPN transcript levels were normalized to GAPDH levels (dCT) which was used to calculate changes in OPN expression (2-ddCT). […] The primers used included Sppl (OPN) (Mm 00436767_m1); Bglap (osteocalcin) (Mm 01741771_g1); IBSP (Mm 00492555_m1); PTHrP (Mm 00433057_m1); RANKL (Mm 00441906_m1); GAPDH (Mm 99999915_g1).

pancreatic cancer = settings: blockade of Hedgehog signaling, inhibiting EMT; cited from earlier work
[1] = test system: OPN, MMP9, and Cathepsin K (CTSK); experiment: OPN, MMP9 and Cathepsin K expression in osteoclasts (qRT-PCR); format: cell-based, murine; settings: osteoclasts with breast cancer conditioned medium; relative to DM
Protocol: Quantitative RT-PCR (qRT-PCR)—cDNA was generated using High Capacity Reverse Transcriptase Kit (Applied Biosystems, Foster City, Calif.). Real time PCR was performed in two cycles using a BioRad iQ5 Real-Time Detection system (Bio-Rad, Hercules, Calif.): the first cycle of 95° C. for 10 mins followed by 40 repeats of the second cycle comprising 95° C. for 15 sec followed by 60° C. for 1 min. All reactions were done in triplicate. Transcript levels were normalized to GAPDH levels (dCT) which was used to calculate changes in gene expression (2-ddCT). […] Following the experimental regime as described herein (for Osteoclast differentiation/activity) RNA was isolated using Trizol (Invitrogen) and assessed as described herein. The details of the primers used were as follows: OPN (Spp1; Mm00436767_m1), Matrixmetalloprotease 9 (MMP9; Mm00600163_m1), Cathepsin K (Ctsk; Mm00484036_m1), SHH (Hs00179843_m1), GLI1 (Hs01110766_m1), OPN (Hs00959010_m1), hGAPDH (Hs99999905_m1) and GAPDH (Mm99999915_g1).

c-jun = c-jun and c-fos protein expression and c-jun phosphorylation in A2780-CP70 cells (Western blot); format: cell-based, human; settings: cyclopamine
Protocol: c-jun protein expression was assessed in cisplatin-treated A2780-CP70 cells using Western blot analysis.
Protein expression of c-fos and phosphorylation of c-jun in cyclopamine-treated A2780-CP70 cells was assessed using Western blot analysis. Protein levels for c-jun, c-fos, phosphorylated c-jun (Ser 63), phosphorylated c-jun (Ser 73), and phosphorylated c-jun (Thr 91, Thr 93) were tested in cytosolic, nuclear, and whole cell fractions at 0 hr, 6 hr, 24 hr, 48 hr, and 72 hr. Internal controls for cytosolic and nuclear fractions included α-tubulin and histone deacetylase 3.
Phosphorylation of c-jun in A2780-CP70 cells transfected with anti-GLI1 shRNA construct was assessed using Western blot analysis. Protein levels for c-jun, phosphorylated c-jun (Ser 63), phosphorylated c-jun (Ser 73), and phosphorylated c-jun (Thr 91, Thr 93) were examined at 0 hr, 6 hr, 24 hr, 48 hr, and 72 hr.

[2] = test system: MC3T3-E1 pre-osteoblast cells; experiment: Osteoblast differentiation and mineralization (ALP, Alizarin Red S, BSP, osteocalcin); format: cell-based, murine
Protocol: The procedure for differentiation of osteoblasts was standardized. MC3T3-E1 cells were cultured in the presence of ascorbic acid and β-glycerophosphate. Mineralization was examined by Alizarin RedS staining (Ueno, A., et al. (2001). Matrix Biol 20, 347-355; Lee, Y. K., et al. (2004). J Biomed Mater Res A 69, 188-195; Duarte, W. R., et al. (2003). S100A4: a novel negative regulator of mineralization and osteoblast differentiation. J Bone Miner Res 18, 493-501). Referring to FIG. 13 and FIG. 14, differentiation was evident by intense red staining in presence of differentiation medium and in differentiation medium containing SHH compared to the control, growth medium. This was also evident in the intensity of absorbance and in the numbers of mineralized nodules formed (counted under the microscope) (FIG. 15).
Induction of osteoblastic and osteoclastic differentiation—In order to test the effect of conditioned medium from the tumor cells on osteoblast differentiation, a double-strength differentiation medium (DM) was formulated for MC3T3 E1 Sc-14 cells. It comprised αMEM, 20% FBS, 50 μg/ml ascorbic acid and 20 mM β-glycerophosphate. Conditioned media and the double-strength DM were mixed in a 1:1 ratio. 1×DM was used as control. Similarly a double-strength differentiation medium was formulated for RAW 264.7 cell lines. It consisted of 20% FBS, 50 ng/ml of RANKL and 20 ng/ml of M-CSF added to the growth medium. Conditioned media from the tumor cells was mixed 1:1 with the double-strength DM. 1×DM was used as control. Osteoblast differentiation was assessed by alkaline phosphatase (ALP) activity assay in the perspective of total phosphatase. The functional assessment of osteoblast mineralization was quantified by staining with Alizarin Red S and scoring the number of mineralized nodules.
as §1

OPN promoter [3] = experiment: OPN promoter reporter activity in MC3T3-E1 pre-osteoblastic cells; format: cell-based, murine
Protocol: (§2) Empty pGL3 vector was used as control. […] Readings were normalized to total protein content. Each parameter was studied in triplicate and the experiment repeated at least 3 times. The data are represented as percent luciferase activity, which was derived as a percent of the relative light units in treated groups compared with the untreated groups.
Empty pGL3 vector was used as control. Different concentrations of SHH ligand were added to the well the next day. Cells were lysed in Reporter Lysis buffer (Promega) 24 hrs post addition of SHH and both β-galactosidase assay and luciferase assays were done following manufacturer's protocol. Readings were normalized to β-galactosidase. Each parameter was studied in triplicate and the experiment repeated at least 3 times.

OPN promoter [4] = experiment: OPN promoter luciferase reporter assay in metastatic melanoma cell lines; format: cell-based, human
Source text: as §2

## CC1=C2C[C@H]3[C@@H](CC=C4C[C@@H](O)CC[C@@]43C)[C@@H]2CC[C@]12O[C@@H]1C[C@H](C)CN[C@H]1[C@H]2C [cyclopamine]
SHH and IHH; 24 hr
  IHH protein levels: reduced
  SHH protein levels: reduced
SHH and IHH; 48 hr and 72 hr
  IHH protein levels: rebounded
  SHH protein levels: rebounded
OPN; hFOB cells, cyclopamine 5 μM, 10 μM, 20 μM
  OPN mRNA levels: decreases OPN mRNA levels
OPN; osteoblastic cells in presence of cyclopamine
  expression of total OPN: decreased
OPN; osteoblastic cells, cyclopamine 5, 10 and 20 μM, dose and time dependent
  secreted OPN: decreased
OPN; osteoblastic cells, cyclopamine (20 μg/ml), real time PCR
  expression of OPN transcript: decreased the expression of OPN transcript
Pancreatic cancer
  pancreatic cancer invasion and metastasis: suppressed pancreatic cancer invasion and metastasis
[1]
  levels of CTSK: significantly decreased
  levels of MMP9: significantly decreased
  levels of OPN: significantly decreased
c-jun
  c-fos protein levels: increased substantially at 6 hr
  phosphorylated c-jun (Ser 73): gradual increase in levels at 24 hour, 48 hr, and 72 hr
  phosphorylated c-jun (Thr 91, Thr 93): peak levels at 6 hr
c-jun; 0-72 hr
  expression of c-jun protein in nuclear fractions: peaked at 48 hr
  phosphorylated c-jun (Ser 63): no substantial expression was detected over 72 hr
c-jun; cytosolic and nuclear fractions
  c-jun protein levels: increased in cytosolic and nuclear fractions at 48 hr and 72 hr

## SHH: recombinant Sonic Hedgehog ligand (R & D Systems)
[2]; DM supplemented with 100 nM recombinant ligand vs DM alone
  alkaline phosphatase (ALP) activity, osteoblast differentiation: promotes differentiation; also recorded: significantly greater
[2]; DM with recombinant ligand vs DM alone, 14 days
  mineralized nodules / Alizarin Red staining: promote differentiation; also recorded: significantly greater number of mineralized nodules
[2]; in presence of SHH, 14 days
  expression of BSP: significantly elevated
  expression of osteocalcin: significantly elevated
OPN promoter [3]
  OPN promoter activity: activate OPN promoter; also recorded: upregulation in OPN promoter activity
OPN promoter [4]; MCC012A cells, Hedgehog ligand treatment
  OPN promoter activity: significant increase
OPN promoter [4]; MCC012F cells, Hedgehog ligand treatment
  OPN promoter activity: significant increase
OPN promoter [4]; MDA-MB-435 cells, increasing concentrations of ligand vs untreated control
  OPN promoter activity: significantly (p<0.0001) higher

Reference: patent publication US9540647B2, “Methods and compositions for the treatment of cancer” (University of South Alabama, priority 2010, dated 2017)
